Data on one compound can be found in patent publication US20260184713A1, “KINASE INHIBITORS” (The United States of America, as represented by the …, priority 2022, published 2026).

What all share (assay): HOTSPOT radiometric kinase assay
One assay has as its target CAMK1δ (Homo sapiens, UniProt Q8IU85).
The next assay has as its target T1, PKCγ (Homo sapiens, UniProt P05129).
T1 construct: purchased Reaction Biology Corp
The class given is biochemical.

The next assay concerns the target T2, DYRK2 (Homo sapiens, UniProt Q92630).
T2 construct: purchased Reaction Biology Corp
T2 sequence (Q92630 1-601): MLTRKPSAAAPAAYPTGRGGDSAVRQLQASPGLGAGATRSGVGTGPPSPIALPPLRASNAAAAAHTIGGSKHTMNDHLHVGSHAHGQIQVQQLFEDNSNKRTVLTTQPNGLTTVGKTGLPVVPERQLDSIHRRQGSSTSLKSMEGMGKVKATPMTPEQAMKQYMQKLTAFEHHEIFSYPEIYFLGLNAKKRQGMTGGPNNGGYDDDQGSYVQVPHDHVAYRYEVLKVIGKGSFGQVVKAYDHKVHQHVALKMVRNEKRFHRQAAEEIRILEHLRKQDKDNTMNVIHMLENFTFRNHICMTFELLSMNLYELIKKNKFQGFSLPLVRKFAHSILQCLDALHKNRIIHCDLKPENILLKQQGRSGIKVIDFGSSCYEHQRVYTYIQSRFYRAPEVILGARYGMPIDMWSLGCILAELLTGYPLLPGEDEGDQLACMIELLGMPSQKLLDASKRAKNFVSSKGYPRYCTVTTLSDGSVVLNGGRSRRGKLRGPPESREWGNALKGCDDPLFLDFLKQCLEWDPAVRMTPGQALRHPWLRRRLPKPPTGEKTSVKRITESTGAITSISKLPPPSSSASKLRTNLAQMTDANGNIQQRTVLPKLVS
The class given is biochemical.

Where two headings read alike, the source gives them in different places.

Chain of CAMK1δ (Q8IU85 whole entry): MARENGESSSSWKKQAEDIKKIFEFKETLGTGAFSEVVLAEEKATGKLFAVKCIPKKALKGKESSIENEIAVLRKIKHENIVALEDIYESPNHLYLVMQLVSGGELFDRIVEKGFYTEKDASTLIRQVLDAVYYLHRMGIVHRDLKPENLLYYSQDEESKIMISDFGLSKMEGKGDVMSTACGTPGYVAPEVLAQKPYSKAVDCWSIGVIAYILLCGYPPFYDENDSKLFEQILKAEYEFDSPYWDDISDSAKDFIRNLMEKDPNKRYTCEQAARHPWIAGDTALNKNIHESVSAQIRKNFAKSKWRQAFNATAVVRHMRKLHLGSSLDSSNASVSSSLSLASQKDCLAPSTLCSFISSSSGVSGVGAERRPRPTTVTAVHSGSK

For orientation: IC50 means the concentration that gives 50% inhibition. As a reminder, the inhibition is the share of the control response that was lost under treatment. Read a high inhibition as a strong effect. As to `Cn1cncc1C1=CN(c2ncnc3nc[nH]c23)CCS1` [Compound 1, Aplithianine A], the IC50 against CAMK1δ is 18000 to 65000 nM; at CAMK1δ (read-out: CAMK1δ IC50, 10 μM ATP) it was 52300 nM; at PKCγ (10 μM ATP, read-out: PKCγ IC50), 234 nM; at PKCγ (Table 4 dose-response, read-out: PKCg IC50 Values), 159 nM; at DYRK2 (10 μM ATP, read-out: DYRK2 IC50) it was 142 nM; at DYRK2 (Table 4 dose-response, read-out: DYRK2 IC50 Values), 151 nM. Besides, the inhibition at 0.05 µM against PKCγ (50 nM, 10 μM ATP) is 30.5%; against DYRK2 (50 nM, 10 μM ATP) it was 20.6%. Moreover, the inhibition at 2 µM amounted to 92.8% at PKCγ (2 μM, 10 μM ATP) and 91.2% against DYRK2 (2 μM, 10 μM ATP). Also, the “PKCg Differential (as compared to PKG1a)” value at PKCγ (IC50 (kinase)/IC50 (PKG1a)) is 13.99. Moreover, the “DYRK2 Differential (as compared to PKG1a)” value on DYRK2 (IC50 (kinase)/IC50 (PKG1a)) amounted to 13.27.
